Reference: patent US4582821A, “Inhibition of cyclic nucleotide independent protein kinases” (E. I. Du Pont de Nemours and Company, priority 1983, dated 1986)

Experiments:
protein kinase = conditions: Johnson et al., Biochemistry 21:2984 (1982); cited from earlier work
hexokinase = conditions: Johnson et al., Biochemistry 21:2984 (1982); cited from earlier work
p130^fps = target: T1, p130^fps (UniProt P00530+P03323); assay: Immune complex phosphorylation by p130fps immunoprecipitates of FSV-transformed cells; assay type: biochemical, Fujinami sarcoma virus (FSV); conditions: for Activity (cpm), FSV: anti-gag immunoprecipitates, no inhibitor 27036; for Activity (cpm), Control: extracts immunoprecipitated with normal serum, no inhibitor 2624
T1 construct: anti-gag serum and Staphylococcus protein A suspension (for FSV-transformed cells); viral gag-derived N-terminal portion (natural gag-fps fusion); expressed in transfected cells; immune complex with anti-gag serum and Staphylococcus protein A
Protocol: In this experiment, Boc-LeuCH2 Br was tested as an inhibitor of pp60^src and p130^fps, the tyrosine-specific protein kinases encoded by the transforming genes of RSV and Fujinami sarcoma virus, respectively.
These viral gene products were partially purified by preparation of immune complexes substantially according to the technique described by Collett et al., Proc. Nat. Acad. Sci. USA 75:2021 (1978). In this procedure, immunoprecipitates are prepared by incubation of extracts of virus-transformed cells with tumor-bearing rabbit serum (TBR) and Staphylococcus protein A suspension (for RSV-transformed cells) or anti-gag serum and Staphylococcus protein A suspension (for FSV-transformed cells).
Assay mixtures contained, in a final volume of 70 μL, 100 μg of immune complex protein, 20 mM Hepes, pH 7.4, and 1 mM MnCl2. Phosphorylation was initiated by addition of 1 μM (4 μCi) [γ-^32 P] ATP. After 10 minutes at about 23°, reactions were terminated by pipetting 20 μL aliquots of assay mixture onto 2×2 cm squares of Whatman 3 MM filter paper, which were immediately suspended in 10% TCA/10 mM sodium pyrophosphate. […] Controls for the immunoprecipitation procedure were prepared by immunoprecipitating transformed cell extracts with normal serum. Values in parentheses represent specific phosphorylation induced by virus-transformed cells.
In a related experiment, the capacity of Boc-LeuCH2 Br to inhibit phosphorylation of casein by p130^fps was determined. These tests were conducted substantially as described above, except 1 mg/mL casein was added to assay mixtures as a substrate, and reactions were terminated by addition of 2.5 mM unlabeled ATP and immediate cooling to 0°. Phosphorylated casein was separated from immunoprecipitate suspensions by centrifugation at 3,000 xg for 3 minutes. The resulting pellets were resuspended in 70 μL of 10 mM Hepes, pH 7.5, and 20 μL aliquots were pipetted onto filter paper squares as previously described.
This experiment was conducted substantially according to the procedures described in Example 17, above. In Table 5, "FSV" refers to immunoprecipitates of FSV-transformed cell extracts prepared by addition of anti-gag serum; controls were extracts immunoprecipitated with normal serum.

A-431 cell EGF receptor = target: T2, A-431 cell EGF receptor (Homo sapiens, UniProt P00533); assay: Protein phosphorylation of A-431 cell membrane EGF receptors (intact membranes, EGF present); assay type: biochemical; conditions: 600 nmoles/mg protein, intact A-431 membranes
T2 construct: intact A-431 cell membranes were employed, rather than solubilized extracts; endogenous in cells; host or cells: A-431 human epidermoid carcinoma cells (plasma membranes)
T2 sequence (P00533 25-1210): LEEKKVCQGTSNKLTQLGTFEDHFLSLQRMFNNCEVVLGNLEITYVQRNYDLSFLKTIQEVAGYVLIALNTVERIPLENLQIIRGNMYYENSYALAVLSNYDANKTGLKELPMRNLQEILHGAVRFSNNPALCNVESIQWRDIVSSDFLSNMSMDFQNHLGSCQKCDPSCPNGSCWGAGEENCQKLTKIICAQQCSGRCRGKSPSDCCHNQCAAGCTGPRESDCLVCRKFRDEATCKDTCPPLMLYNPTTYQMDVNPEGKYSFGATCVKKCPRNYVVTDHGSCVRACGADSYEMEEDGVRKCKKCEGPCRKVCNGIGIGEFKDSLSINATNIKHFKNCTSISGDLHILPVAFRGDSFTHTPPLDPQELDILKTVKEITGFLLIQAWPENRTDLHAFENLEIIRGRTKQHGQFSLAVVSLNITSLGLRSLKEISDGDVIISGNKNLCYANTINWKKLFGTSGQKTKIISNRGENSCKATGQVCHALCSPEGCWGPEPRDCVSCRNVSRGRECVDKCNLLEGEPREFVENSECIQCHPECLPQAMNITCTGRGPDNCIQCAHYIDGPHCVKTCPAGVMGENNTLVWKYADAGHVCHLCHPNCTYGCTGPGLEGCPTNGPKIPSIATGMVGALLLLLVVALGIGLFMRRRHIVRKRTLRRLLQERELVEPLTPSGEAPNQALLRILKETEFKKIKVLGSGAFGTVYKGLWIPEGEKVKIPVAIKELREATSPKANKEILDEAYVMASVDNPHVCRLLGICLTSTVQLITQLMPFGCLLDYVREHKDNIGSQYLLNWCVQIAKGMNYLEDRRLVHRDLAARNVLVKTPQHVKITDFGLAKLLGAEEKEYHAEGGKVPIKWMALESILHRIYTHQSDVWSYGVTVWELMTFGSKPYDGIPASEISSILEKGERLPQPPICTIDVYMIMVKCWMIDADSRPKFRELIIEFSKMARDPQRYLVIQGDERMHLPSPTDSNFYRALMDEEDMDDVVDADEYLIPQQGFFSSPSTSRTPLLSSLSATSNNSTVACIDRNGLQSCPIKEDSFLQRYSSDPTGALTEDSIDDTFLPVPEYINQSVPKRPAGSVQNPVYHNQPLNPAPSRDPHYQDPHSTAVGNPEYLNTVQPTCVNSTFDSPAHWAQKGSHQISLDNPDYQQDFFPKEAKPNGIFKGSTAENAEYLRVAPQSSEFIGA
Protocol: (§1) Protein phosphorylation assays were conducted substantially as described by Carpenter et al., J. Biol. Chem. 254:4884 (1979). Each assay mixture contained, in a final volume of 70 μL: 20 mM Hepes, pH 7.4, 0.01% bovine serum albumin (BSA), 15-150 μg protein in Triton extract, 100 ng EGF, 1 mM MnCl2 and 10-20 μM [γ-^32 P] ATP (2-4 μCi). Peptide halomethyl ketones were added as solutions in ethanol; an equivalent volume of ethanol was added to controls. Assay mixtures were incubated at about 23° for ten minutes, with or without added EGF. Mixtures were then held at 0° for ten minutes before initiation of phosphorylation by addition of 15 μM γ-^32 P) ATP (2 μCi). Reactions were terminated after 3 minutes at 0° by applying an aliquot of the assay mixture to a Whatman 3MM filter paper (2×2 cm), which was then suspended in ice-cold 10% trichloroacetic acid containing 10 mM pyrophosphate. This suspension was gently shaken for a period of 1 hour, during which the trichloroacetic acid/pyrophosphate mixture was changed three times. Finally, the filter papers were dried and radioactivity measured by scintillation counting.
Assays were conducted substantially as described above, except intact A-431 cell membranes were employed, rather than solubilized extracts, and assay mixtures contained 1 mM ouabain. In these Examples, reactions were permitted to proceed for 6 minutes. This technique is substantially similar to that disclosed by Navarro et al., Biochemistry, 21:6138 (1982).

[1] = tested on: A-431 plasma membrane extracts (EGF-mediated protein phosphorylation); assay: Protein phosphorylation in solubilized A-431 plasma membrane extracts, with or without EGF; assay type: biochemical, human; conditions: 477 nmol/mg protein
Protocol: The capacity of certain peptide halomethyl ketones to inhibit protein phosphorylation is illustrated by Examples 1-8, below, in which solubilized plasma membranes prepared from A-431 human epidermoid carcinoma cells were incubated with [γ-^32 P] ATP in the presence of EGF.
A-431 human epidermoid carcinoma cells were grown in Dulbecco's modified Eagle's medium containing 5% fetal calf serum. Plasma membranes were isolated by a method substantially similar to that described by Thom et al., Biochem J. 168:187 (1977), and kept at -70°. Solubilization of plasma membranes was performed substantially as described by Cohen et al., J. Biol. Chem. 255:4834 (1980). In this procedure, 7.5 mg/mL protein was solubilized with 5% Triton X-100 (octylphenol), 10% glycerol, and 20 mM Hepes buffer (N-2-hydroxyethylpiperazine-N^1 -2-ethanesulfonic acid), pH 7.4. This mixture was incubated for 20 minutes at about 23°, followed by centrifugation at 100,000 xg for 60 minutes.
as §1

ASV-transformed cells = conditions: Weber, Cell 5:253 (1975); cited from earlier work
pp60^src = conditions: Richert et al., Cell 18:369 (1979); cited from earlier work

For `CC(C)COC(=O)OC(C)C(=O)CCl` (stereo not drawn) [2-isobutyl 3-oxo-4-chloro-2-butyl carbonate], the “protein kinase activity of Ehrlich ascites tumor cells (in words)” value (protein kinase) is listed as “inhibition” and the “hexokinase activity of Ehrlich ascites tumor cells (in words)” value (hexokinase) is listed as “inhibition”.

With `CC(C)(C)OC(=O)N[C@@H](Cc1ccc(O)cc1)C(=O)CBr` [Boc-TyrCH2 Br] the “% inhibition” value (p130^fps; 250 nmoles/mg protein) was 84%, the “Activity (cpm), FSV” value (p130^fps; 250 nmoles/mg protein) was 4204 cpm and the “Activity (cpm), Control” value (p130^fps; 250 nmoles/mg protein) was 2132 cpm. The “% inhibition” value (p130^fps; 500 nmoles/mg protein) was 87%, the “Activity (cpm), FSV” value (p130^fps; 500 nmoles/mg protein) was 3404 cpm and the “Activity (cpm), Control” value (p130^fps; 500 nmoles/mg protein) was 2140 cpm. For the same molecule, the “% inhibition” value (A-431 cell EGF receptor) was 49%, the “% inhibition, EGF Added” value ([1]; EGF added) was 78% and the “EGF Added (pmol 32P incorporated/min/mg protein)” value ([1]; EGF added, control 96.2) was 20.6 pmol^32 P incorporated/min/mg. For the same molecule, the “% inhibition, No EGF Added” value ([1]; no EGF) was 83% and the “No EGF Added (pmol 32P incorporated/min/mg protein)” value ([1]; no EGF, control 21.6) was 3.6 pmol^32 P incorporated/min/mg.

In the case of `Cc1ccc(S(=O)(=O)N[C@@H](CCCCN)C(=O)CCl)cc1` [TLCK, N-α-tosyl-L-lysyl chloromethyl ketone], the “phenotype of ASV-transformed cells upon treatment (in words)” value (ASV-transformed cells) is listed as “phenotypic reversion of ASV-transformed cells to normal” and the “in vivo protein phosphorylation activity associated with pp60src (in words)” value (pp60^src) is listed as “observed to inhibit”.
